# US20250332178A1, “METHODS OF TREATING MYCOBACTERIAL INFECTIONS USING TETRACYCLINE COMPOUNDS” (priority 2018, published 2025)
# Like-named read-outs stand apart in the source and are kept apart here.
# Experiments:
# M. chimaera = assay: MIC (CLSI broth dilution), slow-growing NTM isolates; format: cell-based; details: read-out: MIC
# M. intracellulare = assay: as above; format: cell-based; details: Mycobacterium intracellulare, read-out: MIC
# [1] = system: rapid-growing mycobacteria (RGM) isolates; assay: MIC (CLSI broth dilution), all RGM isolates; format: cell-based, nontuberculous mycobacteria; details: all 50 RGM isolates
# M. fortuitum group = assay: MIC (CLSI broth dilution), RGM isolates; format: cell-based; details: Mycolicibacterium fortuitum, read-out: MIC
# [2] = system: slow-growing NTM isolates; assay: MIC (CLSI broth dilution), all slow-growing NTM isolates; format: cell-based, nontuberculous mycobacteria; details: all slow-growing NTM isolates
# M. abscessus complex = assay: MIC (CLSI broth dilution), RGM isolates; format: cell-based; details: Mycobacteroides abscessus, read-out: MIC
# M. arupense = assay: MIC (CLSI broth dilution), slow-growing NTM isolates; format: cell-based; details: isolate 11, Other; read-out: MIC
# M. avium = assay: as above; format: cell-based; details: Mycobacterium avium, read-out: MIC
# M. mucogenium group = assay: MIC (CLSI broth dilution), RGM isolates; format: cell-based; details: read-out: MIC
# M. smegmatis group = assay: MIC (CLSI broth dilution), RGM isolates; format: cell-based; details: Mycolicibacterium smegmatis, read-out: MIC
# M. simiae = assay: MIC (CLSI broth dilution), slow-growing NTM isolates; format: cell-based; details: read-out: MIC
# M. chelonae = assay: MIC (CLSI broth dilution), RGM isolates; format: cell-based; details: Mycobacteroides chelonae, read-out: MIC
# M. immunogenum group = assay: MIC (CLSI broth dilution), RGM isolates; format: cell-based; details: M. immunogenum, read-out: MIC
smiles,measurement,setting,value
CN(C)c1cc(CNCC(C)(C)C)c(O)c2c1C[C@H]1C[C@H]3[C@H](N(C)C)C(O)=C(C(N)=O)C(=O)[C@@]3(O)C(O)=C1C2=O [OMC],MIC,"M. chimaera; isolate 4, MAC",> 16 µg/mL
same,MIC,"M. chimaera; isolate 5, MAC",> 16 µg/mL
same,MIC,"M. intracellulare; isolate 6, MAC",> 16 µg/mL
same,MIC,"M. intracellulare; isolate 7, MAC",> 16 µg/mL
same,MIC,"M. intracellulare; isolate 8, MAC",> 16 µg/mL
same,MIC,"M. intracellulare; isolate 9, MAC",> 16 µg/mL
same,MIC,"M. intracellulare; isolate 10, MAC",> 16 µg/mL
same,MIC50,[1]; read-out: MIC50,0.25 µg/mL
same,MIC90,[1]; read-out: MIC90,0.5 µg/mL
same,MIC,"M. fortuitum group; isolate 23, M. fortuitum group, M. fortuitum",0.12 µg/mL
same,MIC,"M. fortuitum group; isolate 24, M. fortuitum group, M. fortuitum",0.12 µg/mL
same,MIC,"M. fortuitum group; isolate 25, M. fortuitum group, M. fortuitum",0.12 µg/mL
same,MIC,"M. fortuitum group; isolate 26, M. fortuitum group, M. porcinum",0.06 µg/mL
same,MIC,"M. fortuitum group; isolate 27, M. fortuitum group, M. porcinum",0.12 µg/mL
same,MIC,"M. fortuitum group; isolate 28, M. fortuitum group, M. porcinum/M. boenickei",0.25 µg/mL
same,MIC,"M. fortuitum group; isolate 29, M. fortuitum group, M. porcinum/M. boenickei",0.25 µg/mL
same,MIC,"M. fortuitum group; isolate 30, M. fortuitum group, M. porcinum/M. boenickei",0.12 µg/mL
same,MIC,"M. fortuitum group; isolate 31, M. fortuitum group, M. senegalense",0.25 µg/mL
same,MIC,"M. fortuitum group; isolate 32, M. fortuitum group, M. senegalense",0.12 µg/mL
same,MIC,"M. fortuitum group; isolate 33, M. fortuitum group, M. senegalense",0.12 µg/mL
same,MIC,"M. fortuitum group; isolate 34, M. fortuitum group, M. senegalense",0.12 µg/mL
same,MIC50,[2]; read-out: MIC50,> 16 µg/mL
same,MIC90,[2]; read-out: MIC90,> 16 µg/mL
same,MIC,"M. abscessus complex; isolate 1, M. abscessus complex, erm gene type MAB30",0.25 µg/mL
same,MIC,"M. abscessus complex; isolate 2, M. abscessus complex, erm gene type MAB30",0.25 µg/mL
same,MIC,"M. abscessus complex; isolate 3, M. abscessus complex, erm gene type MAB30",0.25 µg/mL
same,MIC,"M. abscessus complex; isolate 4, M. abscessus complex, erm gene type massiliense",0.12 µg/mL
same,MIC,"M. abscessus complex; isolate 5, M. abscessus complex, erm gene type massiliense/subsp. abs hybrid",0.25 µg/mL
same,MIC,"M. abscessus complex; isolate 6, M. abscessus complex, erm gene type Type 1 abscessus",0.12 µg/mL
same,MIC,"M. abscessus complex; isolate 7, M. abscessus complex, erm gene type Type 1 abscessus",0.12 µg/mL
same,MIC,"M. abscessus complex; isolate 8, M. abscessus complex, erm gene type Type 1 abscessus",0.12 µg/mL
same,MIC,"M. abscessus complex; isolate 9, M. abscessus complex, erm gene type Type 1 abscessus",0.12 µg/mL
same,MIC,"M. abscessus complex; isolate 10, M. abscessus complex, erm gene type Type 1 abscessus",0.12 µg/mL
same,MIC,"M. abscessus complex; isolate 11, M. abscessus complex, erm gene type Type 6 abscessus",0.12 µg/mL
same,MIC,"M. abscessus complex; isolate 12, M. abscessus complex, erm gene type Type 6 abscessus",0.12 µg/mL
same,MIC,"M. abscessus complex; isolate 13, M. abscessus complex, erm gene type Type 6 abscessus",0.25 µg/mL
same,MIC,"M. abscessus complex; isolate 14, M. abscessus complex, erm gene type Type 6 abscessus",0.12 µg/mL
same,MIC,"M. abscessus complex; isolate 15, M. abscessus complex, erm gene type Type 7 abscessus",0.12 µg/mL
same,MIC,"M. abscessus complex; isolate 16, M. abscessus complex, erm gene type Type 7 abscessus",0.25 µg/mL
same,MIC,"M. abscessus complex; isolate 17, M. abscessus complex, erm gene type Type 8 abscessus",0.06 µg/mL
same,MIC,M. arupense,> 16 µg/mL
same,MIC,"M. avium; isolate 1, MAC",> 16 µg/mL
same,MIC,"M. avium; isolate 2, MAC",> 16 µg/mL
same,MIC,"M. avium; isolate 3, MAC",> 16 µg/mL
same,MIC,"M. mucogenium group; isolate 39, M. mucogenicum group, M. mucogenicum",0.25 µg/mL
same,MIC,"M. mucogenium group; isolate 40, M. mucogenicum group, M. mucogenicum",0.25 µg/mL
same,MIC,"M. mucogenium group; isolate 41, M. mucogenicum group, M. mucogenicum",1 µg/mL
same,MIC,"M. mucogenium group; isolate 42, M. mucogenicum group, M. mucogenicum",0.5 µg/mL
same,MIC,"M. mucogenium group; isolate 43, M. mucogenicum group, M. phocaicum",1 µg/mL
same,MIC,"M. mucogenium group; isolate 44, M. mucogenicum group, M. phocaicum",0.5 µg/mL
same,MIC,"M. mucogenium group; isolate 45, M. mucogenicum group, M. phocaicum",0.5 µg/mL
same,MIC,"M. mucogenium group; isolate 46, M. mucogenicum group, M. phocaicum",1 µg/mL
same,MIC,"M. mucogenium group; isolate 47, M. mucogenicum group, M. phocaicum",1 µg/mL
same,MIC,"M. mucogenium group; isolate 48, M. mucogenicum group, M. phocaicum",0.25 µg/mL
same,MIC,"M. smegmatis group; isolate 49, M. smegmatis group, M. goodii",0.06 µg/mL
same,MIC,"M. smegmatis group; isolate 50, M. smegmatis group, M. wolinskyi",0.5 µg/mL
same,MIC,"M. simiae; isolate 13, Other",> 16 µg/mL
same,MIC,"M. simiae; isolate 14, Other",> 16 µg/mL
same,MIC,"M. simiae; isolate 15, Other",> 16 µg/mL
same,MIC,"M. chelonae; isolate 18, M. chelonae",0.12 µg/mL
same,MIC,"M. chelonae; isolate 19, M. chelonae",0.25 µg/mL
same,MIC,"M. chelonae; isolate 20, M. chelonae",0.12 µg/mL
same,MIC,"M. chelonae; isolate 21, M. chelonae",0.12 µg/mL
same,MIC,"M. chelonae; isolate 22, M. chelonae",0.25 µg/mL
same,MIC,"M. immunogenum group; isolate 35, M. immunogenum group",0.5 µg/mL
same,MIC,"M. immunogenum group; isolate 36, M. immunogenum group",0.25 µg/mL
same,MIC,"M. immunogenum group; isolate 37, M. immunogenum group",0.5 µg/mL
same,MIC,"M. immunogenum group; isolate 38, M. immunogenum group",0.5 µg/mL
